Data as given in US10245255B2, “Compositions and methods for the treatment of obesity and related disorders” (THE REGENTS OF THE UNIVERSITY OF MICHIGAN, priority 2011, dated 2019).
Entries after “also recorded” stand apart in the source; their conditions may differ.

Tests used:
[1] = Ob/ob mice: liver weight, triglycerides, histology; format: in vivo; conditions: 100 mg/kg for 14 weeks
[2] = Established diet-induced obesity treatment group: body weight, food intake, body composition; format: in vivo, C57BL/6 mice
Protocol: (§1) Wild type male C57BL/6 mice were fed a high fat diet consisting of 45% of calories from fat (D12451 Research Diets Inc., New Brunswick, N.J.) starting at 8 weeks of age for 12-24 weeks, while normal diet C57BL/6 controls were maintained on normal chow diet consisting of 4.5% fat (5002 Lab Diet, Philadelphia, Pa.). Diets containing ω-3 fatty acids were fed as previously described 24. Rosiglitazone treatment was administered for three weeks by addition of the compound to the diet in mice that had been on HFD for 16 weeks. Each mouse consumed on average 3.5 mg/kg rosiglitazone per day. Amlexanox was administered by daily oral gavage. […] Animals were housed in a specific pathogen-free facility with a 12-hour light/12-hour dark cycle and given free access to food and water. All animal use was in compliance with the Institute of Laboratory Animal Research Guide for the Care and Use of Laboratory Animals and approved by the University Committee on Use and Care of Animals at the University of Michigan and UCSD.
The remaining weight of food provided was determined daily for singly housed mice. Daily food consumption was calculated from a three-day average.

[3] = Ob/ob mice: blood chemistry (glucose, adiponectin, serum cytokines); format: in vivo
Protocol: as §1
Blood glucose was measured by OneTouch Ultra Glucometer. Plasma from mice fasted for six hours was isolated from whole blood collected into heparinized tubes. Insulin concentrations were measured by insulin ELISA kit (Crystal Chem Inc., Downers Grove, Ill.). Leptin and adiponectin levels were measured by ELISA kits purchased from Cayman Chem Inc. (Ann Arbor, Mich.). Cytokine levels were quantified utilizing luminex technology in a multianalyte panel plate purchased from Millipore (Billerica, Mass.). Additionally, TNFα levels were measured using ELISA kits purchased from R&D Systems (Minneapolis, Minn.).

[4] = Diet-induced obese mice: energy expenditure (metabolic cages) and core body temperature; format: in vivo, C57BL/6 mice; conditions: 25 mg/kg
Protocol: The University of Michigan Animal Metabolic Phenotyping Core measured oxygen consumption (VO2), carbon dioxide production (VCO2) and spontaneous motor activity during 3 consecutive days using the Comprehensive Laboratory Monitoring System (CLAMS, Columbus Instruments), an integrated open-circuit calorimeter equipped with an optical beam activity monitoring system. The respiratory quotient was calculated by dividing carbon dioxide production by oxygen consumption. The mean values for light and dark cycles were used to analyze statistical significance.
Rectal temperature measurements were performed using a YSI 4600 Precision thermometer (YSI, Inc., Yellow Springs, Ohio).

[5] = High fat diet prevention group: oral glucose tolerance test; format: in vivo, C57BL/6 mice; conditions: 25 mg/kg for 8 weeks concurrently with high fat diet
Protocol: as §1
(§2) For glucose tolerance tests, after a six-hour fast mice were orally gavaged with glucose at a dose of 1.5 g/kg (C57BL/6 mice) or 1.2 g/kg (ob/ob mice). […] Blood glucose was measured at basal, 15, 30, 45, 60, 90, 120 and 180 minutes from tail blood using the One Touch Ultra glucometer (Lifescan, Milpitas, Calif.).

[6] = system: broad panel of kinases representing most families; experiment: Broad panel of kinases; format: biochemical
[7] = Ob/ob mice: liver mRNA levels; format: in vivo; conditions: 100 mg/kg for 14 weeks, vs vehicle
Protocol: Particular physiological tests were used during the development of the technology provided herein. For example, in some of the experiments described below, subjects were tested for tolerance of injected glucose and insulin according to the methods described in Chiang et al. (“The protein kinase IKKepsilon regulates energy balance in obese mice”, Cell (2009) 138: 961-975, incorporated herein by reference in its entirety for all purposes). In some of the experiments described below, subjects were tested for tolerance of oral glucose. In particular, mice were fasted for 6 hours before the studies. For ob/ob mice, 1.0-1.5 mg/g of glucose was gavaged into mice, and blood glucose was measured with a glucometer (e.g., OneTouch Ultra glucometer). Measurement of triglycerides, mRNA, and cytokines were performed according to the methods described in Chiang et al. (The protein kinase IKKepsilon regulates energy balance in obese mice. Cell (2009) 138: 961-975).
Mouse tissues were isolated, rinsed in Phosphate Buffered Saline (PBS), frozen in liquid nitrogen and stored at −80° C. until extraction. Total RNA was extracted from Liver, WAT and BAT tissues as well as differentiated 3T3-L1 cells using the RNeasy Lipid Tissue Kit (Qiagen, Valencia, Calif.) according to the manufacturer's instructions with the inclusion of a DNase digestion step. Total RNA was extracted from BMDM and SVF cells using the RNeasy Kit (Qiagen, Valencia, Calif.) with a DNase step. The Superscript First-Strand Synthesis System for RTPCR (Invitrogen, Grand Island, N.Y.) was used with random primers for reverse transcription. Realtime PCR amplification of the cDNA was performed on samples in triplicate with Power SYBR Green PCR Master Mix (Applied Biosystems, Carlsbad, Calif.) using the Applied Biosystems 7900HT Fast Realtime PCR System. […] Data was analyzed using the 2-ΔΔCT method, and statistical significance was determined using the unpaired heterocedastic Student's t-test with one averaged sample value per mouse.

[8] = Ob/ob mice: body weight, food intake, adipose mass; format: in vivo; conditions: 100 mg/kg
[9] = Diet-induced obesity treatment group: insulin tolerance test; format: in vivo, C57BL/6 mice
Protocol: as §1, §2

BAT explants = experiment: Lipid oxidation rate in ex vivo BAT; set-up: species or system mice; conditions: 5 μM amlexanox, 1 hour
Protocol: Lipid oxidation was determined by the conversion of 3H-palmitic acid to 3H2O.

CC(C)c1ccc2oc3nc(N)c(C(=O)O)cc3c(=O)c2c1 [amlexanox, 2-amino-7-isopropyl-5-oxo-5H-chromeno[2,3-b]pyridine-3-carboxylic acid]
large lipid droplets in liver (H & E staining) [1]: largely disseminated
reduction in liver weight [1]: greater than 20%
reduction of triglyceride contents in livers [1]: more than 50%
weight loss ([2]; 25 mg/kg after 12 weeks of 45% high-fat diet, after 4 weeks of treatment): 10 g
reduction in overall mass of adipose tissue ([2]; 25 mg/kg, HFD, treatment phase): > 6 gram
time to return to control weights after treatment was stopped ([2]; withdrawal after 8 weeks of 25 mg/kg treatment, HFD): 6-8 weeks
circulating (serum) level of MCP-1 ([3]; 100 mg/kg): not significantly affected
circulating (serum) level of Rantes ([3]; 100 mg/kg): not significantly affected
circulating adiponectin levels ([3]; 100 mg/kg): increase
reduction in fasting glucose levels ([3]; 100 mg/kg): 25%
serum level of IL-1α ([3]; 100 mg/kg): markedly reduced
serum level of MIP1α ([3]; 100 mg/kg): markedly reduced
serum level of TNFα ([3]; 100 mg/kg): markedly reduced
serum level of IL-10 ([3]; compared to controls): elevated
body temperature (rectal) ([4]; compared to HFD vehicle treated mice): approximate one-degree increase
exhaled carbon dioxide ([4]; diet induced obese mice, four-week treatment): significantly increased
oxygen consumption (VO2) ([4]; diet induced obese mice, four-week treatment, vs vehicle): significantly increased; also recorded: significantly higher
reduction in the area under the curve for glucose (oral glucose tolerance) [5]: 30-40%
block of other kinases of a broad panel [6]: did not block
liver mRNA level, Cd11c [7]: reduced
liver mRNA level, F4/80 [7]: reduced
liver mRNA level, IL-10 [7]: reduced
liver mRNA level, MIP1α [7]: reduced
liver mRNA level, Rantes [7]: reduced
liver mRNA level, TNFα [7]: reduced
liver mRNA level, acetyl CoA carboxylase (ACC) [7]: reduced
liver mRNA level, fatty acid synthase (FAS) [7]: reduced
liver mRNA level, stearyl CoA desaturase (SCD1) [7]: reduced
adipose tissue mass [8]: significant decrease
weight loss ([8]; after 4 weeks of treatment): 7 to 8 g
insulin sensitivity (insulin tolerance test) ([9]; 25 mg/kg, established diet-induced obesity): restoration in insulin responsiveness to normal diet levels
insulin sensitivity in normal diet-fed mice ([9]; normal diet): did not affect
lipid oxidation (3H-palmitic acid to 3H2O) (BAT explants): acutely stimulated
